ChEMBL document CHEMBL2150939, “Synthesis and cytotoxicity of novel ursolic acid derivatives containing an acyl piperazine moiety” (Eur J Med Chem, 2012)
The source made the active and inactive calls. The calls are words filed in the database; no cut-off is given here.

Legend:
Bcap37 [1] = assay: Growth inhibition of human Bcap37 cells at 10 uM after 72 hrs by MTT assay; type: functional; conditions: Bcap37, 72 h, read-out: GI
[2] = Growth inhibition of mouse NIH/3T3 cells at 10 uM after 72 hrs by MTT assay; type: cell-based, NIH3T3; conditions: read-out: GI
Bcap37 [3] = assay: Antiproliferative activity against human Bcap37 cells after 72 hrs by MTT assay; type: functional, cell-based; conditions: Bcap37, 72 h
MGC-803 [4] = assay: Antiproliferative activity against human MGC803 cells after 72 hrs by MTT assay; type: functional, cell-based; conditions: MGC-803, 72 h
MGC-803 [5] = assay: Growth inhibition of human MGC803 cells at 10 uM after 72 hrs by MTT assay; type: functional; conditions: MGC-803, 72 h, read-out: GI
MGC-803 [6] = assay: Induction of apoptosis in human MGC803 cells assessed as condensed chromatin at 10 uM after 48 hrs by Hoechst 33258 staining; type: functional, cell-based
MGC-803 [7] = assay: Induction of apoptosis in human MGC803 cells assessed as membrane blebbing at 10 uM after 48 hrs by acridine orange/ethidium bromide staining; type: functional, cell-based
MGC-803 [8] = assay: Induction of apoptosis in human MGC803 cells assessed as DNA fragmentation at 10 uM after 24 hrs by TUNEL assay; type: functional, cell-based
MGC-803 [9] = assay: Induction of apoptosis in human MGC803 cells assessed as pyknosis at 10 uM after 48 hrs by acridine orange/ethidium bromide staining; type: functional, cell-based
MGC-803 [10] = assay: Induction of apoptosis in human MGC803 cells assessed as cell budding at 10 uM after 48 hrs by acridine orange/ethidium bromide staining; type: functional, cell-based
MGC-803 [11] = assay: Induction of apoptosis in human MGC803 cells assessed as early and late apoptotic level at 10 uM after 24 hrs by annexinV/FITC-PI staining-based flow cytometric analysis; type: functional
MGC-803 [12] = assay: Induction of apoptosis in human MGC803 cells at 10 uM after 48 hrs by acridine orange/ethidium bromide staining; type: functional, cell-based
MGC-803 [13] = assay: Induction of apoptosis in human MGC803 cells assessed as early and late apoptotic level at 10 uM after 36 hrs by annexinV/FITC-PI staining-based flow cytometric analysis; type: functional
MGC-803 [14] = assay: Induction of apoptosis in human MGC803 cells assessed as early and late apoptotic level at 10 uM after 12 hrs by annexinV/FITC-PI staining-based flow cytometric analysis; type: functional
MGC-803 [15] = assay: Induction of apoptosis in human MGC803 cells assessed as cell budding at 5 uM at 24 hrs by acridine orange/ethidium bromide staining
MGC-803 [16] = assay: Induction of apoptosis in human MGC803 cells assessed as cell budding at 5 uM up to 48 hrs by acridine orange/ethidium bromide staining; type: functional, cell-based
MGC-803 [17] = assay: Induction of apoptosis in human MGC803 cells at 10 uM by annexinV/FITC-PI staining-based flow cytometric analysis; type: functional, cell-based; conditions: TDE = time-dependent effect
MGC-803 [18] = assay: Induction of apoptosis in human MGC803 cells assessed as early apoptotic cells at 5 uM after 24 hrs by acridine orange/ethidium bromide staining; type: functional, cell-based
MGC-803 [19] = assay: Induction of apoptosis in human MGC803 cells assessed as late apoptotic cells at 5 uM after 48 hrs by acridine orange/ethidium bromide staining; type: functional, cell-based
MGC-803 [20] = assay: Induction of apoptosis in human MGC803 cells assessed as pyknosis at 5 uM after 12 to 48 hrs by acridine orange/ethidium bromide staining; type: functional, cell-based
MGC-803 [21] = assay: Induction of apoptosis in human MGC803 cells assessed as condensed chromatin at 5 uM after 12 to 48 hrs by Hoechst 33258 staining; type: functional, cell-based
MGC-803 [22] = assay: Induction of apoptosis in human MGC803 cells assessed as DNA fragmentation at 2.5 to 10 uM after 24 hrs by TUNEL assay; type: functional, cell-based
MGC-803 [23] = assay: Induction of apoptosis in human MGC803 cells assessed as membrane blebbing at 5 uM after 12 to 48 hrs by acridine orange/ethidium bromide staining; type: functional, cell-based

Structure (SMILES)	inhibition of growth at 10 µM (Bcap37 [1])	inhibition at 72 h, 10 µM [2]	IC50 (Bcap37 [3]; read-out: IC50)	IC50 (MGC-803 [4])	inhibition of growth at 10 µM (MGC-803 [5])	also measured
CCCCC(CC)C(=O)N1CCN(CCOC(=O)[C@]23CC[C@@H](C)[C@H](C)[C@H]2C2=CC[C@@H]4[C@@]5(C)CC[C@H](O)C(C)(C)[C@@H]5CC[C@@]4(C)[C@]2(C)CC3)CC1 (some centres not stated)	68.6%	54.5%	4.16 µM	6.89 µM	80.8%	
C[C@H]1[C@H](C)CC[C@]2(C(=O)OCCN3CCN(C(=O)c4ccc(F)cc4F)CC3)CC[C@]3(C)C(=CC[C@@H]4[C@@]5(C)CC[C@H](O)C(C)(C)[C@@H]5CC[C@]43C)[C@H]12	60.5%	18.1%	8.31 µM	12.5 µM	32.1%	
C[C@H]1[C@H](C)CC[C@]2(C(=O)O)CC[C@]3(C)C(=CC[C@@H]4[C@@]5(C)CC[C@H](O)C(C)(C)[C@@H]5CC[C@]43C)[C@H]12 [URSOLIC ACID]	11.9%	14%	28.7 µM	24.3 µM	28.9%	Activity (MGC-803 [6]): Active; Activity (MGC-803 [7]): Active; Activity (MGC-803 [8]): Active; Activity (MGC-803 [9]): Active; Activity (MGC-803 [10]): Active
C[C@H]1[C@H](C)CC[C@]2(C(=O)OCCN3CCN(C(=O)c4ccc(F)cc4)CC3)CC[C@]3(C)C(=CC[C@@H]4[C@@]5(C)CC[C@H](O)C(C)(C)[C@@H]5CC[C@]43C)[C@H]12	83.7%	71.3%	5.12 µM	7.29 µM	71.8%	
Cc1ccccc1C(=O)N1CCN(CCOC(=O)[C@]23CC[C@@H](C)[C@H](C)[C@H]2C2=CC[C@@H]4[C@@]5(C)CC[C@H](O)C(C)(C)[C@@H]5CC[C@@]4(C)[C@]2(C)CC3)CC1	94.8%	60.3%	5.34 µM	3.59 µM	98.9%	
CC[C@@]1(O)C(=O)OCc2c1cc1n(c2=O)Cc2cc3cc(O)ccc3nc2-1 [HYDROXYCAMPTOTHECIN]	28.1%	9.3%	> 20 µM	> 20 µM	29.1%	Activity (MGC-803 [11]): 18.66%; Activity (MGC-803 [6]): Active; Activity (MGC-803 [8]): Active; Activity (MGC-803 [12]): Active; Activity (MGC-803 [13]): 24.95%; Activity (MGC-803 [14]): 17.37%
COc1ccc(C(=O)N2CCN(CCOC(=O)[C@]34CC[C@@H](C)[C@H](C)[C@H]3C3=CC[C@@H]5[C@@]6(C)CC[C@H](O)C(C)(C)[C@@H]6CC[C@@]5(C)[C@]3(C)CC4)CC2)cc1OC	51.8%	73.1%	11.1 µM		24.5%	
C[C@H]1[C@H](C)CC[C@]2(C(=O)OCCN3CCNCC3)CC[C@]3(C)C(=CC[C@@H]4[C@@]5(C)CC[C@H](O)C(C)(C)[C@@H]5CC[C@]43C)[C@H]12	84.4%	60.1%	7.5 µM	7.25 µM	86.6%	
CC(C)c1ccc(C(=O)N2CCN(CCOC(=O)[C@]34CC[C@@H](C)[C@H](C)[C@H]3C3=CC[C@@H]5[C@@]6(C)CC[C@H](O)C(C)(C)[C@@H]6CC[C@@]5(C)[C@]3(C)CC4)CC2)cc1	45.5%	5.5%	11.8 µM	5.02 µM	72.3%	
C[C@H]1[C@H](C)CC[C@]2(C(=O)OCCN3CCN(C(=O)/C=C/c4ccccc4)CC3)CC[C@]3(C)C(=CC[C@@H]4[C@@]5(C)CC[C@H](O)C(C)(C)[C@@H]5CC[C@]43C)[C@H]12	54.4%	39%	9.22 µM	12.6 µM	51.1%	
C[C@H]1[C@H](C)CC[C@]2(C(=O)OCCN3CCN(C(=O)c4ccccc4C(F)(F)F)CC3)CC[C@]3(C)C(=CC[C@@H]4[C@@]5(C)CC[C@H](O)C(C)(C)[C@@H]5CC[C@]43C)[C@H]12	38.6%	16.2%	10.9 µM	8.72 µM	71.2%	
C[C@H]1[C@H](C)CC[C@]2(C(=O)OCCN3CCN(C(=O)c4c(F)cccc4Cl)CC3)CC[C@]3(C)C(=CC[C@@H]4[C@@]5(C)CC[C@H](O)C(C)(C)[C@@H]5CC[C@]43C)[C@H]12	85.3%	24.4%	4.32 µM	4.18 µM	92.1%	
C[C@H]1[C@H](C)CC[C@]2(C(=O)OCCN3CCN(C(=O)Cc4ccc(Cl)cc4)CC3)CC[C@]3(C)C(=CC[C@@H]4[C@@]5(C)CC[C@H](O)C(C)(C)[C@@H]5CC[C@]43C)[C@H]12	52%	2.9%	10 µM	8.59 µM	68.6%	
C[C@H]1[C@H](C)CC[C@]2(C(=O)OCCN3CCN(C(=O)c4c(Cl)cccc4Cl)CC3)CC[C@]3(C)C(=CC[C@@H]4[C@@]5(C)CC[C@H](O)C(C)(C)[C@@H]5CC[C@]43C)[C@H]12	76%	32.1%	9.24 µM	2.5 µM	95.6%	Activity (MGC-803 [11]): 28.01%; Activity (MGC-803 [15]): Active; Activity (MGC-803 [16]): Active; Activity (MGC-803 [17]): tde; Activity (MGC-803 [18]): Active; Activity (MGC-803 [19]): Active; Activity (MGC-803 [20]): Active; Activity (MGC-803 [21]): Active; Activity (MGC-803 [22]): Active; Activity (MGC-803 [23]): Active; Activity (MGC-803 [13]): 33.35%; Activity (MGC-803 [14]): 23.57%
C[C@H]1[C@H](C)CC[C@]2(C(=O)OCCN3CCN(C(=O)c4ccccc4Cl)CC3)CC[C@]3(C)C(=CC[C@@H]4[C@@]5(C)CC[C@H](O)C(C)(C)[C@@H]5CC[C@]43C)[C@H]12	69.1%	29.8%	7.26 µM	4.66 µM	93%	
COc1cccc2c1C(=O)c1c(O)c3c(c(O)c1C2=O)C[C@@](O)(C(=O)CO)C[C@@H]3O[C@H]1C[C@H](N)[C@H](O)[C@H](C)O1 [DOXORUBICIN]	92.1%	99.2%		0.7 µM	92.1%	IC50 (Bcap37 [3]): 1.28 µM
